Values of other authors in US8828412B2, “Stable polyphenol containing ophthalmic emulsion for treating dry eyes” (Abbott Medical Optics Inc., priority 2009, dated 2014).

Details: reported; species not stated

oral bioavailability: about 60%
SMILES: COc1cc(/C=C/C(=O)CC(=O)/C=C/c2ccc(O)c(OC)c2)ccc1O [curcumin]
